The results in this text go back to patent US9186385B2 (priority 2009, dated 2015).

Assay [1] concerns antibody level of hemolysin. The assay is described as follows: Circulating antibody level test on sheep red blood cells (cyclophosphamide immunodeficient mice). Format: in vivo. The note with it: 0.03 g/kg gastric infusion 7 days; cyclophosphamide-treated mice; OD 540 nm. How it is done:
The anti-inflammatory effects of the extract compositions AB and ABC were determined for a series of treatment groups through the circulating antibody level test on sheep red blood cells.
Mice weighing 20-25 g were used in this study. Each group comprised an equal number of male and female animals. Rearing temperature was 23±2° C. The mice were divided into nine groups with 10 rats each: (1) blank control, (2) model control, (3) AB high dosage (15 g/kg), (4) AB mid dosage (7.5 g/kg), (5) AB low dosage (3.75 g/kg), (6) ABC high dosage (13.0 g/kg), (7) ABC mid dosage (7.66 g/kg), (8) ABC low dosage (3.83 g/kg), and (9) levamisole (0.03 g/kg).
The treatments of placebo and extract compositions were administered to each of the mice by gastric infusion for a period of 7 days. On the 2nd, 4th, and 6th day, each mouse, with the exception of those in the blank control group, was injected intraperitoneally with 50 mg/10 ml/kg of cyclophosphamide. Mice in the blank control group were injected intraperitoneally with saline of the same volume. Three days following administration of the final treatment (on day 7), all mice were each immunized by intraperitoneal injections of 0.2 ml of sheep erythrocyte suspension (5% of sheep erythrocyte in saline). […] The absorbance for each supernatant sample was recorded as an index of serum hemolytic level. […]

Assay [2] relates to peritoneal macrophage phagocytosis. The assay can be described thus: Peritoneal macrophage phagocytosis in mice (India ink clearance, cyclophosphamide). Format: in vivo. To be noted: 0.03 g/kg gastric infusion 7 days; cyclophosphamide-treated mice.
Assay [3] concerns type 1 FM1 influenza virus. The assay is described as follows: Inhibition of the FM1 influenza virus in mice (lung index). The assay is classed as in vivo, NIH mice.
For assay [4], the system named is permeability of the intraperitoneal blood capillary. The assay is described as follows: Anti-inflammatory effect: permeability of the intraperitoneal blood capillary (acetic acid, Evans blue). Format: in vivo, NIH mice. To be noted: 0.15 g/kg intragastric once a day, 3 days; acetic acid i.p.; OD 570 nm. How it is done: The anti-inflammatory effects of the extract compositions AB and ABC were determined for a series of treatment groups through measurement of the permeability of the intraperitoneal blood capillary.
NIH mice, weighing 20±2 g, were used in this experiment. […] The rearing temperature was 23±2° C. The mice were randomly divided into nine groups with 10 mice in each group: (1) blank control, (2) model control, (3) AB high dosage (15 g/kg), (4) AB mid dosage (7.5 g/kg), (5) AB low dosage (3.75 g/kg), (6) ABC high dosage (13.0 g/kg), (7) ABC mid dosage (7.66 g/kg), (8) ABC low dosage (3.83 g/kg), and (9) sodium salicylate group (0.15 g/kg).
An acetic normal saline solution was prepared by dissolving about a 0.4% of glacial acetic acid in 50 ml of a normal saline solution.
A 2% Evans blue normal saline solution was prepared by dissolving 2 g of Evans blue in 100 ml of normal saline solution. […]
About twenty minutes following the receipt of the saline injections, each mouse was sacrificed by breaking its cervical vertebrae. […] The supernatant was then collected and the absorbance or optical density (OD) of the supernatant was measured at 570 nm using a spectrophotometer. The experimental data was analyzed. Data was assessed using the t-test to determine statistically significant differences between the results of each of the groups. […]

In assay [5] the test system is foot swelling induced by carrageenan. The assay is described as follows: Rat foot swelling induced by carrageenan. The note with it: 0.15 g/kg oral once a day, 4 days. Format: in vivo, Rats. How it is done: The anti-inflammatory effects of the extract compositions AB and ABC were determined for a series of treatment groups through measurement of the foot swelling of rat paws following the administration of carrageenan.
Rats weighing 200±20 g were used in this experiment. Each test group comprised the same number of male and female animals. Rearing temperature was 23±2° C. The rats were divided into eight groups with 10 rats each: (1) model control, (2) AB high dosage (15 g/kg), (3) AB mid dosage (7.5 g/kg), (4) AB low dosage (3.75 g/kg), (5) ABC high dosage (13.0 g/kg), (6) ABC mid dosage (7.66 g/kg), (7) ABC low dosage (3.83 g/kg), (8) sodium salicylate group (0.15 g/kg), […]. There was no blank control in this experiment as there is no swelling of an animal paws where carrageenan is not administered
The method for conducting this experiment followed the guidelines outlined in the Manual on Studies of New Medicines of TCM by the Drug Administration Ministry of Health P.R.C. The method outlined in the manual details the following steps:
1. Draw a clear transverse line situated on the upper and front angles of the left back paw of each rat with a ballpoint pen;
2. Measure the paw volume of each rat;
3. Subcutaneously inject each rat, except those in the blank control group, with a dose of carrageenan (0.05 ml/paw) into the metatarsus of the hindlimb;
4. Orally administer one of the treatments of the AB extract, ABC extract, or sodium salicylate as per the above-noted dosages once a day for a period of 4 days. Rats in the model control group and blank were injected with saline of the same volume;
5. On the morning of the 4th day, one hour following the last administration of the final treatment, subcutaneously inject carrageenan (0.05 ml/paw) into the metatarsus of hindlimb of each rat;
6. Measure the paw volume at each of 1 hour, 2 hours, 3 hours, and 4 hours following the second carrageenan administration; and
7. Calculate the paw swelling percentage for each rat.
The swelling percentage was calculated by the following formula: Swelling percentage=((swelling volumes of rat paw after inflammation−swelling volumes of rat paw before inflammation)/swelling volumes of rat paw before inflammation)×100%
The experimental data was analyzed using the t-test to determine statistically significant differences between the results of each of the groups. There was no swelling in the paws of rats in the blank control group. The anti-inflammatory effects of the AB and ABC herbal extract compositions and sodium salicylate were considered to be effective when P was less than 0.05.

Setting [6] is: […], 0.07 g/kg intragastric once a day, 3 days, day 4.

On to `c1ccc([C@H]2CN3CCSC3=N2)cc1` [Levamisole, levamisole], for which the “OD value of hemolysin” value in assay [1] was determined as 0.75 ± 0.006. Moreover, in assay [2], the “Phagocytic coefficient (K)” value stood at 0.046 ± 0.007 and the “Phagocytic coefficient index (α)” value is reported as 6.76 ± 0.43.
Consider `NC(=O)c1ncn([C@@H]2O[C@H](CO)[C@@H](O)[C@H]2O)n1` [Ribavirin], for which, in assay [3] (setting [6]), the “Lung Index” value is recorded as 1.19 ± 0.30 g/g and the Weight came out at 14.94 ± 1.64 g. The “The rate of inhibition of lung index” value in assay [3] (mouse, in vivo) is given as 32.38%.
In the case of `O=C([O-])c1ccccc1O.[Na+]` [Sodium salicylate, sodium salicylate], the “OD value of haemolysin in serum” value in assay [4] came out at 0.305 ± 0.060. Moreover, the Paw swelling is 0.490 ± 0.202 mL in assay [5] (1 h after carrageenan), 0.405 ± 0.195 mL in assay [5] (2 h after carrageenan), 0.265 ± 0.153 mL in assay [5] (3 h after carrageenan) and 0.170 ± 0.136 mL in assay [5] (4 h after carrageenan).
